Source: patent US20250263370A1 (Tay Therapeutics Limited, priority 2022, published 2025)
“And” between values parts separate entries of the source, which are not always exact repeats. Identical values can stand only once. Like-named read-outs stand apart in the source and are kept apart here. Marks after values point to notes of the source that are not given here.

Columns and labels:
[1] = test system: rat anti-collagen IgG1 antibodies; assay: Rat anti-collagen IgG1 antibodies in serum of CIA rats at day 21; format: in vivo, Lewis rat; settings: for Average rat anti-collagen IgG1 levels, Mean: day 21, group mean; for Final Rat Anti-Collagen IgG1 Antibody Con. / Rat Anti-Collagen IgG1 Antibody Con.: day 21, per animal; for Rat Anti-Collagen IgG1 Antibody Con.: before multiplying by Fold 2000
Experimental: Blood was additionally collected from groups 1-7 via cardiac puncture following euthanasia on Day 21. […] Serum was divided into two separate tubes and stored at −75±15° C. One tube was used to analyze IgG1, and the other tube was reserved for additional analyses.

[2] = Pharmacokinetics and plasma concentration of Example 101 in Lewis rats after oral administration (CIA study); format: in vivo, Lewis rat; settings: Day 21, Group 4 (CIA + GSK620)
IL-17A = IL-17A levels by ELISA in stimulated human peripheral blood mononuclear cells; format: cell-based; settings: Homo sapiens, PBMC
Experimental: (§1) CD2, CD3, and CD28 antibody-coated beads from the T-cell activation/expansion kit (Miltenyi Biotec) were added to the PBMC at a bead-to-cell ratio of 1:2.
(§2) The mixture of PBMCs and beads were seeded into the wells of the round-bottom 96-well plate at a concentration of 2×10^5 cells/well in a total volume of 200 μL. The cells were cultured for 72 hours at 37° C. and 5% CO2 and then supernatants were collected and IL-17A and IL-22 levels were measured by ELISA. […] The final compound concentration ranged from 30,000 nM to 0.005 nM and the final DMSO concentration per well was 0.3%. PBMCs were seeded at approximately 2×10^5 cells/well in the wells of the 96-well tissue culture plate in a total volume of 190 μL. The plate was incubated for 1 hour at 37° C. and 5% CO2. […] The cells were then cultured for 24 hours at 37° C. and 5% CO2. The supernatant was collected and CXCL10 levels were measured by ELISA.

IL-22 = IL-22 levels by ELISA in stimulated human peripheral blood mononuclear cells; format: cell-based; settings: Homo sapiens, PBMC
Experimental: as §1, §2

CXCL10 = CXCL10 levels by ELISA in IFN-γ stimulated human peripheral blood mononuclear cells; format: cell-based; settings: human PBMC
Experimental: The impact of Examples 23, 80, and 101 on IL-17A, IL-22, and CXCL10 levels was analyzed in cryopreserved human peripheral blood mononuclear cells (PBMC) by ELISA. […] For IL-17A and IL-22 assays, Examples 23, 80, and 101 were serially diluted from 10 mM in DMSO and further diluted in assay media to 100× the required final concentration, of which, 2 μL was added per well to a round-bottom 96-well tissue culture plate where the final DMSO concentration per well was 0.1%. CD2, CD3, and CD28 antibody-coated beads from the T-cell activation/expansion kit (Miltenyi Biotec) were added to the PBMC at a bead-to-cell ratio of 1:2.
The mixture of PBMCs and beads were seeded into the wells of the round-bottom 96-well plate at a concentration of 2×10^5 cells/well in a total volume of 200 μL. The cells were cultured for 72 hours at 37° C. and 5% CO2 and then supernatants were collected and IL-17A and IL-22 levels were measured by ELISA. For the CXCL10 assay, Examples 23, 80, and 101 were serially diluted from 10 mM in DMSO and further diluted in assay media to 100× the required final concentration, of which 2 μL was added per well to a 96-well tissue culture plate. The final compound concentration ranged from 30,000 nM to 0.005 nM and the final DMSO concentration per well was 0.3%. PBMCs were seeded at approximately 2×10^5 cells/well in the wells of the 96-well tissue culture plate in a total volume of 190 μL. The plate was incubated for 1 hour at 37° C. and 5% CO2. The cells were then stimulated with IFN-γ (15 ng/mL final concentration) in a volume of 10 μL. The cells were then cultured for 24 hours at 37° C. and 5% CO2. The supernatant was collected and CXCL10 levels were measured by ELISA.

Structure (SMILES) | Average rat anti-collagen IgG1 levels, Mean ([1]; Group 4 (CIA + GSK620)) | Final Rat Anti-Collagen IgG1 Antibody Con. ([1]; Group 4 (CIA + GSK620)) | Rat Anti-Collagen IgG1 Antibody Con. ([1]; Group 4 (CIA + GSK620)) | Plasma concentration ([2]; per animal) | concentration at 21 day ([2]; Lewis, rat, plasma, oral, read-out: Mean Plasma Concentration) [ng/mL] | IC50 (IL-17A; Test Subject 1, read-out: IL-17A IC50) [nM] | IC50 (IL-17A; Test Subject 2, read-out: IL-17A IC50) [nM] | IC50 (IL-17A; Test Subject 3, read-out: IL-17A IC50) [nM] | IC50 (IL-17A; mean of test subjects, read-out: IL-17A IC50 Mean) [nM] | IC50 (IL-22; Test Subject 1, read-out: IL-22 IC50) [nM] | IC50 (IL-22; Test Subject 2, read-out: IL-22 IC50) [nM] | IC50 (IL-22; Test Subject 3, read-out: IL-22 IC50) [nM] | IC50 (IL-22; mean of test subjects, read-out: IL-22 IC50 Mean) [nM] | IC50 (CXCL10; Test Subject 1, read-out: CXCL10 IC50) [µM] | IC50 (CXCL10; Test Subject 2, read-out: CXCL10 IC50) [µM] | IC50 (CXCL10; Test Subject 3, read-out: CXCL10 IC50) [µM] | IC50 (CXCL10; mean of test subjects, read-out: CXCL10 IC50 Mean) [µM] | Average rat anti-collagen IgG1 levels, Mean ([1]; Group 3 (CIA + Dex)) | Final Rat Anti-Collagen IgG1 Antibody Con. ([1]; Group 3 (CIA + Dexamethasone)) | Rat Anti-Collagen IgG1 Antibody Con. ([1]; Group 3 (CIA + Dexamethasone))
CNC(=O)c1cc(C(=O)NC2CC2)cn(Cc2ccccc2)c1=O [GSK620] | 7532.82* | 9149.39 units/ml and 10971.56 units/ml and 258.62 units/ml and 1400.18 units/ml and 15017.25 units/ml and 2682.44 units/ml and 9308.00 units/ml and 11475.12 units/ml | 4.57 units/ml and 5.49 units/ml and 0.13 units/ml and 0.70 units/ml and 7.51 units/ml and 1.34 units/ml and 4.65 units/ml and 5.74 units/ml | 1590 ng/mL and 4170 ng/mL and 3070 ng/mL and 2740 ng/mL and 1760 ng/mL and 3230 ng/mL and 3450 ng/mL and 2540 ng/mL | 2820 | 80.5 | 59.7 | 139 | 93.2 | 231 | 21.6 | 106 | 120 | > 30 | > 30 | > 30 | > 30 |  |  | 
C[C@@H]1C[C@H]2[C@@H]3CCC4=CC(=O)C=C[C@]4(C)[C@@]3(F)[C@@H](O)C[C@]2(C)[C@@]1(O)C(=O)CO [dexamethasone] |  |  |  |  |  |  |  |  |  |  |  |  |  |  |  |  |  | 7833.69* | 22019.88 units/ml and 5250.27 units/ml and 1296.14 units/ml and 2541.14 units/ml and 4553.59 units/ml and 7925.50 units/ml and 7346.16 units/ml | 11.01 units/ml and 2.63 units/ml and 0.65 units/ml and 1.27 units/ml and 5.87 units/ml and 2.28 units/ml and 3.96 units/ml and 3.67 units/ml
